# Measurements from ChEMBL document CHEMBL5614447, “Innovative Drug Discovery: Targeting Cancer, Neurological Disorders, and Obesity” (ACS Med Chem Lett, 2024).
# Biological target: Protein cereblon/DNA damage-binding protein 1 (Homo sapiens) (UniProt Q96SW2+Q16531)
# Test: Displacement of AlexaFlour-conjugated ligand from CRBN/DDB1 complex (unknown origin) incubated in 0.05% PA/0.1% BSA at room temperature for 60 mins by fluorescence polarization assay
# Type: protein assay
# Protein cereblon/DNA damage-binding protein 1 (Homo sapiens), sequence (Q16531 2-1140 partner limits assumed): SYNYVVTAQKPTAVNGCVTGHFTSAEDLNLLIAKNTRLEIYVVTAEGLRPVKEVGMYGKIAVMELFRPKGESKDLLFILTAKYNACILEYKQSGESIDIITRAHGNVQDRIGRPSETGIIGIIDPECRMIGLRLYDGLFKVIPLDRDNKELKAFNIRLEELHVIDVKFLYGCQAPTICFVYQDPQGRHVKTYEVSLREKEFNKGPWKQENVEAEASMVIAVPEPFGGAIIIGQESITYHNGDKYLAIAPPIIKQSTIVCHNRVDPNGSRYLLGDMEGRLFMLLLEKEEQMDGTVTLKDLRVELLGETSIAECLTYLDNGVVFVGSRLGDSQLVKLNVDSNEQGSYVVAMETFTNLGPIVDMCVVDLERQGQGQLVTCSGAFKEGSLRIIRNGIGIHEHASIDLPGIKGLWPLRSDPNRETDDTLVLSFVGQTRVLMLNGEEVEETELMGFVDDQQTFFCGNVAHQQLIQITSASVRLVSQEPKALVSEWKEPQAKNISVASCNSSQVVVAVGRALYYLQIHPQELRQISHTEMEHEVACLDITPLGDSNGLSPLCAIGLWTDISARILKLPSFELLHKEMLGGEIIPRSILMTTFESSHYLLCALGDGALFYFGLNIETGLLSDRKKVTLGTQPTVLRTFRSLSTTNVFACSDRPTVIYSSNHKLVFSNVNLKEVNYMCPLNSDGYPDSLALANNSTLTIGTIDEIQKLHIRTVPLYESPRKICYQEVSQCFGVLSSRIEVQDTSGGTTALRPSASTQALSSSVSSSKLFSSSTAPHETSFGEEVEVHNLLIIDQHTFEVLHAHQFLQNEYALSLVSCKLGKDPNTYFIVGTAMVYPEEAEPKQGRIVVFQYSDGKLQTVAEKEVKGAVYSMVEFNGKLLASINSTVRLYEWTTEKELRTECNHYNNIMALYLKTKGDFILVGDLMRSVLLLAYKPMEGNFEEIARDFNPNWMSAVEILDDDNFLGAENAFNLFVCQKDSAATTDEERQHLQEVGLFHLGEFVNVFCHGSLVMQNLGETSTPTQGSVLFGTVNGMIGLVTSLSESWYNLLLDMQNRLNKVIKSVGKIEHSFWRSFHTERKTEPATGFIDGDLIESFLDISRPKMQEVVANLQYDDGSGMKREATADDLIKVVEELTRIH
# Protein cereblon/DNA damage-binding protein 1 (Homo sapiens), sequence (Q96SW2 whole entry): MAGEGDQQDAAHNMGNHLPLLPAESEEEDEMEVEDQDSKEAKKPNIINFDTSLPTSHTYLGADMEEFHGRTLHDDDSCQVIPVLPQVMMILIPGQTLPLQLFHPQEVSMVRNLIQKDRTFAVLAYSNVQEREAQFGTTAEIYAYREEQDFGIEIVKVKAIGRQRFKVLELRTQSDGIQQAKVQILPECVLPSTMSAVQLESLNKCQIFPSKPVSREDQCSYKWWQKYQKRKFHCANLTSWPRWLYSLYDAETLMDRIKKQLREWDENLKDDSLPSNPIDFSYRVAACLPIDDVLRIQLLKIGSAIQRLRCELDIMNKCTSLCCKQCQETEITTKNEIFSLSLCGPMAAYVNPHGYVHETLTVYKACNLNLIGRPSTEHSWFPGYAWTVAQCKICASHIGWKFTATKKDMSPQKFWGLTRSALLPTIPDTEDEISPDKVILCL
row,SMILES,binding affinity (displacement)
1,CN(C(=O)OC(C)(C)C)C1CCN(c2cccc3c2OCCN3[C@@H]2CCC(=O)NC2=O)CC1,< 1 µM
2,CNC1CCN(c2cccc3c2O[C@H](C)CN3C2CCC(=O)NC2=O)CC1 (stereo partly drawn),< 100 µM
3,CN(C(=O)OC(C)(C)C)C1CCN(c2cccc3c2OCCN3[C@H]2CCC(=O)NC2=O)CC1,< 100 µM
4,O=C1CCC(N2CCOc3c([C@H]4CCNC4)cccc32)C(=O)N1 (stereo partly drawn),< 100 µM
5,O=C1CCC(N2CCOc3c([C@@H]4CCNC4)cccc32)C(=O)N1 (stereo partly drawn),< 100 µM
6,O=C1CCC(N2CCOc3c(N4CCNCC4)cccc32)C(=O)N1 (stereo not drawn),< 100 µM
7,O=C1CCC(N2CCOc3c([C@@H]4CCCNC4)cccc32)C(=O)N1 (stereo partly drawn),< 100 µM
8,CNC1CCN(c2cccc3c2O[C@@H](C)CN3C2CCC(=O)NC2=O)CC1 (stereo partly drawn),< 100 µM
